pIC50: −log10 of the molar value. ≈ marks a conversion by molar mass, not a printed value. Where “and” joins values, the source holds several entries; their conditions need not be identical. Identical values can stand only once. Like-named read-outs stand apart in the source and are kept apart here.

Data set [1] deals with SARS-CoV-2 (MEX-BC2/2020). The data set is described as follows: Live SARS-CoV-2 CPE-based antiviral assay in Vero E6 cells (neutral red). Type of data set: cell-based.
A further data set concerns uninfected Vero E6 cells. To be noted: for Viability of Uninfected Vero E6 Cells: 4-day treatment, mean ± s.d. of duplicates; for Viability of Uninfected Vero E6 Cells (A540): 4 days, raw duplicates.

Broadly, the CC50 is the concentration at which the toxic effect on the cells reaches its halfway point. Low values mean harm at low concentration, high ones better tolerance by the cells. For the compound `CCCCCCCC/C=C\CCCCCCCCCCCCCC(=O)N[C@@H](CO[C@@H]1O[C@H](CO)[C@H](O)[C@H](OS(=O)(=O)O)[C@H]1O)[C@H](O)/C=C/CCCCCCCCCCCCC` [Sulfatide 24:1, C24:1 3′-sulfo Galactosylceramide (d18:1/24:1(15Z))], the “Inhibition of SARS-CoV-2 (MEX-BC2/2020) Virus-Induced CPE” value (“Inhibition” for short) in data set [1] (0.78 μg/mL, average ± s.d. of duplicates) is reported as −3.4 ± 0.6 % mock; in data set [1] (1.6 μg/mL, average ± s.d. of duplicates), −1.7 ± 4.1 % mock; in data set [1] (3.1 μg/mL, average ± s.d. of duplicates), −3.6 ± 1.1 % mock; in data set [1] (6.25 μg/mL, average ± s.d. of duplicates), −3.8 ± 1.1 % mock; in data set [1] (12.5 μg/mL, average ± s.d. of duplicates) it was 1.3 ± 3.9 % mock; in data set [1] (25 μg/mL, average ± s.d. of duplicates), 1.9 ± 2.2 % mock. For the same compound, the “Inhibition” value in data set [1] (50 μg/mL, average ± s.d. of duplicates) was determined as 21.6 ± 13.0 % mock; in data set [1] (100 μg/mL, average ± s.d. of duplicates) it was 61.3 ± 8.5 % mock. The “Raw OD - Absorbance (540 nm), infected cells” value (“Raw OD - Absorbance (540 nm)” for short) is 0.121 and 0.118 in data set [1] (0.78 μg/mL, duplicates); 0.137 and 0.115 in data set [1] (1.6 μg/mL, duplicates); 0.122 and 0.116 in data set [1] (3.1 μg/mL, duplicates); 0.115 and 0.121 in data set [1] (6.25 μg/mL, duplicates); 0.127 and 0.18 in data set [1] (12.5 μg/mL, duplicates); 0.134 and 0.146 in data set [1] (25 μg/mL, duplicates). In addition, the “Raw OD - Absorbance (540 nm)” value in data set [1] (50 μg/mL, duplicates) is 0.180 and 0.250; in data set [1] (100 μg/mL, duplicates), 0.390 and 0.344. In addition, the “IC50 (antiviral)” value in data set [1] (Vero E6, 96 h, neutral red) was found to be 84.9 µg/mL (≈ 95.4 µM). Moreover, the “prevention of virus-induced CPE (in words)” value in data set [1] (at the two highest concentrations tested, 50 μg/mL and 100 μg/mL) is “prevented the virus-induced cytopathic effect (CPE) in a dose-dependent manner”. The compound also showed a CC50 with uninfected Vero E6 cells above 100 µg/mL. Besides, in the data set on uninfected Vero E6 cells, the “cytotoxicity in viability assay (in words)” value was “dose-dependent trend of cytotoxicity”. Moreover, the “Viability of Uninfected Vero E6 Cells” value is on record as 89.8 ± 5.8 % vehicle with uninfected Vero E6 cells (0.78 μg/mL); 99.3 ± 1.4 % vehicle in the data set with uninfected Vero E6 cells (1.6 μg/mL); 97.3 ± 1.4 % vehicle in the data set with uninfected Vero E6 cells (3.1 μg/mL); 95.7 ± 2.3 % vehicle with uninfected Vero E6 cells (6.25 μg/mL); 95.6 ± 3.5 % vehicle in the data set with uninfected Vero E6 cells (12.5 μg/mL); 85.8 ± 11.0 % vehicle with uninfected Vero E6 cells (25 μg/mL). The entries for the “Viability of Uninfected Vero E6 Cells” value in the data set with uninfected Vero E6 cells (50 μg/mL) and in the data set on uninfected Vero E6 cells (100 μg/mL) were 73.7 ± 13.1 % vehicle and 63.8 ± 7.9 % vehicle, respectively. The “Viability of Uninfected Vero E6 Cells (A540)” value in the data set with uninfected Vero E6 cells (0.78 μg/mL) was 0.457 and 0.424; in the data set with uninfected Vero E6 cells (1.6 μg/mL), 0.495 and 0.487; in the data set with uninfected Vero E6 cells (3.1 μg/mL), 0.487 and 0.479; with uninfected Vero E6 cells (6.25 μg/mL) it was 0.483 and 0.470; in the data set on uninfected Vero E6 cells (12.5 μg/mL), 0.486 and 0.466; in the data set with uninfected Vero E6 cells (25 μg/mL), 0.468 and 0.405. In addition, the “Viability of Uninfected Vero E6 Cells (A540)” value in the data set with uninfected Vero E6 cells (50 μg/mL) is 0.425 and 0.350; in the data set with uninfected Vero E6 cells (100 μg/mL), 0.370 and 0.325.

For orientation: pIC50 means the negative decadic logarithm of the IC50, by convention in mol/L. Turning to `N#C[C@@]1(c2ccc3c(N)ncnn23)O[C@H](CO)[C@@H](O)[C@H]1O` [GS-441524, reference compound], the “Inhibition” value in data set [1] (0.03 μM, single data point) was found to be 0.09 % mock; in data set [1] (0.08 μM, single data point) it was 1.1 % mock; in data set [1] (0.25 μM, single data point) it was 16.1 % mock; in data set [1] (0.74 μM, single data point), 134.9 % mock; in data set [1] (1 μM), 110.2 % mock; in data set [1] (6.7 μM, single data point) it was 116.6 % mock. Also, the “Inhibition” value in data set [1] (10 μM) is on record as 100.0 % mock. In addition, the “Raw OD - Absorbance (540 nm)” value in data set [1] (0.25 μM, single data point) was 0.194; in data set [1] (0.74 μM, single data point) it was 0.648; in data set [1] (1 μM), 0.554 and 0.553; in data set [1] (6.7 μM, single data point), 0.578; in data set [1] (10 μM) it was 0.507 and 0.522. In addition, in data set [1] (Severe acute respiratory syndrome coronavirus 2, Vero C1008, Vero E6, 96 h, estimated by GraphPad Prism, R2 = 0.977), the pIC50 is around 6.55. For the same compound, in data set [1] (Vero E6), the “concentrations at which virus-induced CPE was completely prevented” value is at least 0.74 µM. The “prevention of virus-induced CPE by control inhibitor (in words)” value in data set [1] (quality control of infectivity assay) is “prevented completely the virus-induced CPE”.

On to `C[S+](C)[O-]` [DMSO, reference compound], for which the “block of cell viability” value in the data set with uninfected Vero E6 cells (tested at 10%) is reported as “more than 95%”.

(Values after patent US20240277740A1, “TREATMENT OF KNOWN AND UNKNOWN VIRAL INFECTION WITH LIPID AGENTS” (Viratides, LLC, priority 2020, published 2024).)
